This is an account of results in patent US9580437B2, “Triazolopyrimidine compounds and uses thereof” (Novartis AG, priority 2014, dated 2017).

pIC50: −log10 of the molar value.

Experiment [1] concerns the target EED (1-441)-His protein (Homo sapiens (Human), UniProt O75530). Kind of experiment: EED-H3K27Me3 peptide competition binding assay by AlphaScreen. Conditions: read-out: (a) IC50 EED Alphascreen binding Qualified. From the text:
EED-H3K27Me3 peptide competition binding assay by AlphaScreen (α-screen)
(In general: Bead proximity is the source of the signal in Alpha formats.)

Experiment [2] has as its target wild type PRC2 (wtPRC2) complex (Homo sapiens (Human), UniProt O75530). Kind of experiment: EED LC-MS assay. It is filed as biochemical. As to conditions: read-out: (b) IC50 EED LC-MS Qualified. As to the method:
A 6 μL solution of 3 μM of the peptide substrate H3K27Me0 (histone H3[21-44]-biotin) in reaction buffer was added to initiate each reaction. […] ELISA (H3K27 Methylation) Assay

wild type PRC2 (wtPRC2) complex, sequence (O75530 whole entry): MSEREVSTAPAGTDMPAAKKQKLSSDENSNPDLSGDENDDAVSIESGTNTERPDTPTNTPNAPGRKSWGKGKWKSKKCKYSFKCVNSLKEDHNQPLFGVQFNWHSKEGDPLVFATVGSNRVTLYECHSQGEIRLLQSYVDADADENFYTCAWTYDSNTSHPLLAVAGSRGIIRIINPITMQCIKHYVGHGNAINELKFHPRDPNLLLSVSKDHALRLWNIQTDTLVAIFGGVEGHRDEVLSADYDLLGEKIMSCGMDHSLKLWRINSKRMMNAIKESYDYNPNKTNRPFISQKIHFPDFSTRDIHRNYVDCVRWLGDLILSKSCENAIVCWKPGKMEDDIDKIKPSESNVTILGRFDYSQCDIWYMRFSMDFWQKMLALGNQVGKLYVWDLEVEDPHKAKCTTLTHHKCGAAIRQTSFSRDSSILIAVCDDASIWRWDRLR
wild type PRC2 (wtPRC2) complex, sequence (Q15910 whole entry partner): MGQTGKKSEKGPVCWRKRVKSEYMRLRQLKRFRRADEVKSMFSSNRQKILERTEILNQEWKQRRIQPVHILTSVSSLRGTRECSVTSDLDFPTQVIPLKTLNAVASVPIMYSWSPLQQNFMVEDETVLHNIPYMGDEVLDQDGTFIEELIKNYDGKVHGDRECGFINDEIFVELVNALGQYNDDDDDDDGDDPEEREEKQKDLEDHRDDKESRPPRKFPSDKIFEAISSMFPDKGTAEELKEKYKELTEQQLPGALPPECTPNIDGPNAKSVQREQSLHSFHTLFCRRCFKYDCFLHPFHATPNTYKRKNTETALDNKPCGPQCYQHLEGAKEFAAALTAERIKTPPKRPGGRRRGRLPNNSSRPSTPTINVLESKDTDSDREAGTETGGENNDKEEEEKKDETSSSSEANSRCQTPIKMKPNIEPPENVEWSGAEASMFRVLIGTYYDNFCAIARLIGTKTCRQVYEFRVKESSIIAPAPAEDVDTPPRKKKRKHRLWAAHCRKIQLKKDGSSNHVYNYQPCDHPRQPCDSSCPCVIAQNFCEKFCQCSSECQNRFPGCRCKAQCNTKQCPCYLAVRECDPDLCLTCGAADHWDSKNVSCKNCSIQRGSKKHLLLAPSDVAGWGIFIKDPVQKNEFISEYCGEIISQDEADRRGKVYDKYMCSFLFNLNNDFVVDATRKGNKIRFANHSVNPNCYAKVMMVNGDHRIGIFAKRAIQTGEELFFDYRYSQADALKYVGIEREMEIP
wild type PRC2 (wtPRC2) complex, sequence (Q15022 whole entry partner): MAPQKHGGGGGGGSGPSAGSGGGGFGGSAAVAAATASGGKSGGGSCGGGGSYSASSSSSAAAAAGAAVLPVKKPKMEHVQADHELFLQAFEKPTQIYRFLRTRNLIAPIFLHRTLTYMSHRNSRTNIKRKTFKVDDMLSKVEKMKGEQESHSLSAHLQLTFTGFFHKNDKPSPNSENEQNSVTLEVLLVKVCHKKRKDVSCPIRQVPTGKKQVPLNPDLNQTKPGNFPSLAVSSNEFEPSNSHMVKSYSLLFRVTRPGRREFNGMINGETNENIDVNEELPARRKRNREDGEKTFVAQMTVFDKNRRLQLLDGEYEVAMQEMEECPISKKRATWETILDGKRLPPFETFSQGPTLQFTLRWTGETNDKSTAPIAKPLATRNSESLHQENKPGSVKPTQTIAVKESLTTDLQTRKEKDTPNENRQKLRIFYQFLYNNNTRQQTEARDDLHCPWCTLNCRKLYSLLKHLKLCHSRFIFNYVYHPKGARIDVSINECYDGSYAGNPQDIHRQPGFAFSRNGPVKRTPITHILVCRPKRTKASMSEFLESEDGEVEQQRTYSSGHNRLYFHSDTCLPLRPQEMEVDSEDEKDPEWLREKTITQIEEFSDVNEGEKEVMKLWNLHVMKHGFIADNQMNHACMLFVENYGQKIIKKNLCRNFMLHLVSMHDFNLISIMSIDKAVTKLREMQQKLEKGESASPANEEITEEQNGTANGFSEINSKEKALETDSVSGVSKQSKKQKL
EED (1-441)-His protein, sequence (O75530 whole entry): as the sequence (O75530 whole entry) above

As for `O=C(c1ccc(-c2cnc(NCc3cccc4c3CCO4)n3cnnc23)cc1)N1CCNCC1` [Example 41, (4-(5-(((2,3-dihydrobenzofuran-4-yl)methyl)amino)-[1,2,4]triazolo[4,3-c]pyrimidin-8-yl)phenyl)(piperazin-1-yl)methanone], the pIC50 (in general, −log10 of the IC50, conventionally taken in molar units) is 7.88 in experiment [1] and 8.01 in experiment [2].
The matching figures for `CC(C)n1nccc1-c1cnc(NCc2c(F)ccc3c2CCO3)n2cnnc12` [Example 144, N-((5-fluoro-2,3-dihydrobenzofuran-4-yl)methyl)-8-(1-isopropyl-1H-pyrazol-5-yl)-[1,2,4]triazolo[4,3-c]pyrimidin-5-amine]: 8.20 and 7.75.
For `O=CN1CCCN(c2ccc(-c3cnc(NCc4cccc5c4CCO5)n4cnnc34)cn2)CC1` [Example 113, 4-(5-(5-(((2,3-dihydrobenzofuran-4-yl)methyl)amino)-[1,2,4]triazolo[4,3-c]pyrimidin-8-yl)pyridin-2-yl)-1,4-diazepane-1-carbaldehyde], the pIC50 in experiment [1] was 7.90; in experiment [2], 7.80.
On the same counts, the results for `Fc1ccc2c(c1CNc1ncc(-c3ccnnc3)c3nncn13)CCO2` [Example 202, N-((5-fluoro-2,3-dihydrobenzofuran-4-yl)methyl)-8-(pyridazin-4-yl)-[1,2,4]triazolo[4,3-c]pyrimidin-5-amine] are 8.02 and 7.73.
On the same counts, the results for `Cc1nc(OC(C)C)ncc1-c1cnc(NCc2c(F)ccc3c2CCO3)n2cnnc12` [Example 9, N-((5-fluoro-2,3-dihydrobenzofuran-4-yl)methyl)-8-(2-isopropoxy-4-methylpyrimidin-5-yl)-[1,2,4]triazolo[4,3-c]pyrimidin-5-amine] are 8.39 and 8.10.
The matching figures for `FC(F)c1ccc(-c2cnc(NCc3cccc4c3CCO4)n3cnnc23)cn1` [Example 154, 8-(6-(difluoromethyl)pyridin-3-yl)-N-((2,3-dihydrobenzofuran-4-yl)methyl)-[1,2,4]triazolo[4,3-c]pyrimidin-5-amine]: 7.70 and 7.43.
For `Cc1nn(C[C@@H](C)O)c(C)c1-c1cnc(NCc2c(F)ccc3c2CCO3)n2cnnc12` [Example 186, (2R)-1-(4-(5-(((5-fluoro-2,3-dihydrobenzofuran-4-yl)methyl)amino)-[1,2,4]triazolo[4,3-c]pyrimidin-8-yl)-3,5-dimethyl-1H-pyrazol-1-yl)propan-2-ol], the negative-log IC50 (pIC50) was 8.46 in experiment [1] and 8.22 in experiment [2].
On the same counts, the results for `CN(C)C(=O)c1ccc(-c2cnc(NCc3cccc4c3CCO4)n3cnnc23)cc1` [Example 42, 4-(5-(((2,3-dihydrobenzofuran-4-yl)methyl)amino)-[1,2,4]triazolo[4,3-c]pyrimidin-8-yl)-N,N-dimethylbenzamide] are 7.28 and 7.06.
`CCn1nccc1-c1cnc(NCc2c(F)ccc3c2CCO3)n2cnnc12` [Example 143, 8-(1-ethyl-1H-pyrazol-5-yl)-N-((5-fluoro-2,3-dihydrobenzofuran-4-yl)methyl)-[1,2,4]triazolo[4,3-c]pyrimidin-5-amine]: the pIC50 in experiment [1] was 7.74; in experiment [2], 7.50.
On the same counts, the results for `O=C(c1ccc(-c2cnc(NCc3cccc4c3CCO4)n3cnnc23)cn1)N1CCCC1` [Example 80, (5-(5-(((2,3-dihydrobenzofuran-4-yl)methyl)amino)-[1,2,4]triazolo[4,3-c]pyrimidin-8-yl)pyridin-2-yl)(pyrrolidin-1-yl)methanone] are 8.43 and 8.06.
Consider `COc1ccc(-c2cnc(NCc3c(F)ccc4c3CCO4)n3cnnc23)c(C)n1` [Example 155, N-((5-fluoro-2,3-dihydrobenzofuran-4-yl)methyl)-8-(6-methoxy-2-methylpyridin-3-yl)-[1,2,4]triazolo[4,3-c]pyrimidin-5-amine], for which the pIC50 is 7.77 in experiment [1] and 7.34 in experiment [2].
On the same counts, the results for `Cc1cc(S(C)(=O)=O)ncc1-c1cnc(NCc2c(F)ccc3c2CCO3)n2cnnc12` [Example 127, N-((5-fluoro-2,3-dihydrobenzofuran-4-yl)methyl)-8-(4-methyl-6-(methylsulfonyl)pyridin-3-yl)-[1,2,4]triazolo[4,3-c]pyrimidin-5-amine] are 8.59 and 8.06.
`COc1cc(Cl)c(-c2cnc(NCc3c(F)ccc4c3CCO4)n3cnnc23)cn1` [Example 138, 8-(4-chloro-6-methoxypyridin-3-yl)-N-((5-fluoro-2,3-dihydrobenzofuran-4-yl)methyl)-[1,2,4]triazolo[4,3-c]pyrimidin-5-amine]: the pIC50 is 8.72 in experiment [1] and 8.08 in experiment [2].
On the same counts, the results for `Fc1ccc2c(c1CNc1ncc(F)c3nncn13)CCO2` [Example 235, 8-fluoro-N-((5-fluoro-2,3-dihydrobenzofuran-4-yl)methyl)-[1,2,4]triazolo[4,3-c]pyrimidin-5-amine] are 7.40 and 7.19.
Regarding `Cc1cc(-c2cnc(NCc3c(F)ccc4c3CCO4)n3cnnc23)ccn1` [Example 116, N-((5-fluoro-2,3-dihydrobenzofuran-4-yl)methyl)-8-(2-methylpyridin-4-yl)-[1,2,4]triazolo[4,3-c]pyrimidin-5-amine], the pIC50 is 8.33 in experiment [1] and 8.12 in experiment [2].
For `[O-][n+]1cccc(-c2cnc(NCc3c(F)ccc4c3CCO4)n3cnnc23)c1` [Example 10, 3-(5-(((5-fluoro-2,3-dihydrobenzofuran-4-yl)methyl)amino)-[1,2,4]triazolo[4,3-c]pyrimidin-8-yl)pyridine 1-oxide], the values for the pIC50 in experiment [1] and in experiment [2] were 8.14 and 7.86, respectively.
On the same counts, the results for `Cc1cn(-c2cnc(NCc3c(F)ccc4c3CCO4)n3cnnc23)cn1` [Example 233, N-((5-fluoro-2,3-dihydrobenzofuran-4-yl)methyl)-8-(4-methyl-1H-imidazol-1-yl)-[1,2,4]triazolo[4,3-c]pyrimidin-5-amine] are 8.41 and 7.94.
Take `Cc1ncncc1-c1cnc(NCc2c(F)ccc3c2CCO3)n2cnnc12` [Example 176, N-((5-fluoro-2,3-dihydrobenzofuran-4-yl)methyl)-8-(4-methylpyrimidin-5-yl)-[1,2,4]triazolo[4,3-c]pyrimidin-5-amine]: the values for the negative logarithm of the IC50 (pIC50) in experiment [1] and in experiment [2] were 8.23 and 8.08, respectively.
The matching figures for `Cc1nn(C(C)C)c(C)c1-c1cnc(NCc2cccc3c2CCO3)n2cnnc12` [Example 153, N-((2,3-dihydrobenzofuran-4-yl)methyl)-8-(1-isopropyl-3,5-dimethyl-1H-pyrazol-4-yl)-[1,2,4]triazolo[4,3-c]pyrimidin-5-amine]: 8.11 and 7.83.
The matching figures for `c1cc(CNc2ncc(-c3cnn(C4CC4)c3)c3nncn23)c2c(c1)OCC2` [Example 149, 8-(1-cyclopropyl-1H-pyrazol-4-yl)-N-((2,3-dihydrobenzofuran-4-yl)methyl)-[1,2,4]triazolo[4,3-c]pyrimidin-5-amine]: 7.77 and 7.47.
The matching figures for `Clc1ccncc1-c1cnc(NCc2cccc3c2CCO3)n2cnnc12` [Example 50, 8-(4-chloropyridin-3-yl)-N-((2,3-dihydrobenzofuran-4-yl)methyl)-[1,2,4]triazolo[4,3-c]pyrimidin-5-amine]: 7.72 and 7.39.
